The source of these data is the NIST ThermoML archive (doi:10.1016/j.jct.2014.02.024).

± gives the expanded uncertainty stated by the source.

Series [1] can be described thus: mn = molality of the nth substance listed, in mol/kg. As to conditions: 101.3 kPa, Liquid, m2 = 0; for viscosity: Capillary tube (Ostwald / Ubbelohde) method; for mass density: Pycnometric method.
For series [2] the following is noted: 101.3 kPa, Liquid; for viscosity: Capillary tube (Ostwald / Ubbelohde) method; for mass density: Pycnometric method.

One may read the viscosity as the resistance of a fluid to flow. By mass density is commonly meant mass per unit of volume. In the case of `O` [water] + NC(=O)c1cccnc1, the figures for the viscosity in series [1] (275.15 K), in series [1] (277.15 K) and in series [1] (279.15 K) were 1.674 ± 0.036 mPa·s, 1.567 ± 0.034 mPa·s and 1.472 ± 0.032 mPa·s, respectively. Further, the mass density is recorded as 999.94 ± 0.92 kg/m3 in series [1] (275.15 K), 999.97 ± 0.92 kg/m3 in series [1] (277.15 K) and 999.94 ± 0.92 kg/m3 in series [1] (279.15 K).
On to `O` [water], for which the viscosity in series [2] (275.15 K) is 1.674 ± 0.036 mPa·s; in series [2] (277.15 K) it was 1.567 ± 0.034 mPa·s; in series [2] (279.15 K) it was 1.472 ± 0.032 mPa·s. The mass density amounted to 999.94 ± 0.92 kg/m3 in series [2] (275.15 K), 999.97 ± 0.92 kg/m3 in series [2] (277.15 K) and 999.94 ± 0.92 kg/m3 in series [2] (279.15 K).
In the case of `O` [water] + O=C(O)c1cccnc1, the viscosity in series [1] (275.15 K) stood at 1.674 ± 0.036 mPa·s; in series [1] (277.15 K) it was 1.567 ± 0.034 mPa·s; in series [1] (279.15 K), 1.472 ± 0.032 mPa·s. Besides, the figures for the mass density in series [1] (275.15 K), in series [1] (277.15 K) and in series [1] (279.15 K) were 999.94 ± 0.92 kg/m3, 999.97 ± 0.92 kg/m3 and 999.94 ± 0.92 kg/m3, respectively.
